According to ChEMBL document CHEMBL4765227, “Hit to lead optimization of a series of N-[4-(1,3-benzothiazol-2-yl)phenyl]acetamides as monoacylglycerol lipase inhibitors with potential anticancer activity” (Eur J Med Chem, 2016):

Assays:
Type in all cases: functional
Settings in all cases: read-out: GI
[1] = tested on: MDA-MB-435; assay: Growth inhibition of human MDA-MB-435 cells at 10 uM incubated for 48 hrs by sulforhodamine B assay relative to control
[2] = tested on: SNB-75; assay: Growth inhibition of human SNB-75 cells at 10 uM incubated for 48 hrs by sulforhodamine B assay relative to control
[3] = tested on: OVCAR-8; assay: Growth inhibition of human OVCAR-8 cells at 10 uM incubated for 48 hrs by sulforhodamine B assay relative to control
[4] = tested on: UO-31; assay: Growth inhibition of human UO-31 cells at 10 uM incubated for 48 hrs by sulforhodamine B assay relative to control
[5] = tested on: SF-295; assay: Growth inhibition of human SF-295 cells at 10 uM incubated for 48 hrs by sulforhodamine B assay relative to control
[6] = tested on: PC-3; assay: Growth inhibition of human PC-3 cells at 10 uM incubated for 48 hrs by sulforhodamine B assay relative to control
[7] = tested on: OVCAR-4; assay: Growth inhibition of human OVCAR-4 cells at 10 uM incubated for 48 hrs by sulforhodamine B assay relative to control
[8] = tested on: LOX IMVI; assay: Growth inhibition of human LOX IMVI cells at 10 uM incubated for 48 hrs by sulforhodamine B assay relative to control
[9] = tested on: NCI-H522; assay: Growth inhibition of human NCI-H522 cells at 10 uM incubated for 48 hrs by sulforhodamine B assay relative to control
[10] = tested on: CCRF-CEM; assay: Growth inhibition of human CCRF-CEM cells at 10 uM incubated for 48 hrs by sulforhodamine B assay relative to control
[11] = tested on: NCI-H23; assay: Growth inhibition of human NCI-H23 cells at 10 uM incubated for 48 hrs by sulforhodamine B assay relative to control
[12] = tested on: SF-268; assay: Growth inhibition of human SF-268 cells at 10 uM incubated for 48 hrs by sulforhodamine B assay relative to control
[13] = tested on: SK-MEL-5; assay: Growth inhibition of human SK-MEL-5 cells at 10 uM incubated for 48 hrs by sulforhodamine B assay relative to control
[14] = tested on: NCI/ADR-RES; assay: Growth inhibition of human NCI/ADR-RES cells at 10 uM incubated for 48 hrs by sulforhodamine B assay relative to control
[15] = tested on: Hs-578T; assay: Growth inhibition of human Hs-578T cells at 10 uM incubated for 48 hrs by sulforhodamine B assay relative to control
[16] = tested on: COLO 205; assay: Growth inhibition of human COLO 205 cells at 10 uM incubated for 48 hrs by sulforhodamine B assay relative to control
[17] = tested on: HCT-116; assay: Growth inhibition of human HCT-116 cells at 10 uM incubated for 48 hrs by sulforhodamine B assay relative to control
[18] = tested on: HT-29; assay: Growth inhibition of human HT-29 cells at 10 uM incubated for 48 hrs by sulforhodamine B assay relative to control
[19] = tested on: SN12C; assay: Growth inhibition of human SN12C cells at 10 uM incubated for 48 hrs by sulforhodamine B assay relative to control
[20] = tested on: HCC 2998; assay: Growth inhibition of human HCC 2998 cells at 10 uM incubated for 48 hrs by sulforhodamine B assay relative to control
[21] = tested on: HCT-15; assay: Growth inhibition of human HCT-15 cells at 10 uM incubated for 48 hrs by sulforhodamine B assay relative to control
[22] = tested on: NCI-H226; assay: Growth inhibition of human NCI-H226 cells at 10 uM incubated for 48 hrs by sulforhodamine B assay relative to control
[23] = tested on: SK-MEL-28; assay: Growth inhibition of human SK-MEL-28 cells at 10 uM incubated for 48 hrs by sulforhodamine B assay relative to control
[24] = tested on: OVCAR-5; assay: Growth inhibition of human OVCAR-5 cells at 10 uM incubated for 48 hrs by sulforhodamine B assay relative to control
[25] = tested on: TK-10; assay: Growth inhibition of human TK-10 cells at 10 uM incubated for 48 hrs by sulforhodamine B assay relative to control
[26] = tested on: UACC-62; assay: Growth inhibition of human UACC-62 cells at 10 uM incubated for 48 hrs by sulforhodamine B assay relative to control
[27] = tested on: SNB-19; assay: Growth inhibition of human SNB-19 cells at 10 uM incubated for 48 hrs by sulforhodamine B assay relative to control
[28] = tested on: IGROV-1; assay: Growth inhibition of human IGROV-1 cells at 10 uM incubated for 48 hrs by sulforhodamine B assay relative to control
[29] = tested on: BT-549; assay: Growth inhibition of human BT-549 cells at 10 uM incubated for 48 hrs by sulforhodamine B assay relative to control
[30] = tested on: RXF 393; assay: Growth inhibition of human RXF 393 cells at 10 uM incubated for 48 hrs by sulforhodamine B assay relative to control
[31] = tested on: DU-145; assay: Growth inhibition of human DU-145 cells at 10 uM incubated for 48 hrs by sulforhodamine B assay relative to control
[32] = tested on: KM12; assay: Growth inhibition of human KM12 cells at 10 uM incubated for 48 hrs by sulforhodamine B assay relative to control
[33] = tested on: MOLT-4; assay: Growth inhibition of human MOLT-4 cells at 10 uM incubated for 48 hrs by sulforhodamine B assay relative to control
[34] = tested on: SF-539; assay: Growth inhibition of human SF-539 cells at 10 uM incubated for 48 hrs by sulforhodamine B assay relative to control
[35] = tested on: HL-60(TB); assay: Growth inhibition of human HL-60(TB) cells at 10 uM incubated for 48 hrs by sulforhodamine B assay relative to control
[36] = tested on: MDA-MB-231; assay: Growth inhibition of human MDA-MB-231 cells at 10 uM incubated for 48 hrs by sulforhodamine B assay relative to control
[37] = tested on: HOP-92; assay: Growth inhibition of human HOP-92 cells at 10 uM incubated for 48 hrs by sulforhodamine B assay relative to control
[38] = tested on: M14; assay: Growth inhibition of human M14 cells at 10 uM incubated for 48 hrs by sulforhodamine B assay relative to control
[39] = tested on: UACC-257; assay: Growth inhibition of human UACC-257 cells at 10 uM incubated for 48 hrs by sulforhodamine B assay relative to control
[40] = tested on: OVCAR-3; assay: Growth inhibition of human OVCAR-3 cells at 10 uM incubated for 48 hrs by sulforhodamine B assay relative to control
[41] = tested on: MCF7; assay: Growth inhibition of human MCF7 cells at 10 uM incubated for 48 hrs by sulforhodamine B assay relative to control
[42] = tested on: Malme-3M; assay: Growth inhibition of human Malme-3M cells at 10 uM incubated for 48 hrs by sulforhodamine B assay relative to control
[43] = tested on: K562; assay: Growth inhibition of human K562 cells at 10 uM incubated for 48 hrs by sulforhodamine B assay relative to control
[44] = tested on: MDA-MB-468; assay: Growth inhibition of human MDA-MB-468 cells at 10 uM incubated for 48 hrs by sulforhodamine B assay relative to control

## O=C(CN1C(=O)C(=O)c2ccccc21)Nc1ccc(-c2nc3ccccc3s2)cc1
[1]
  inhibition of growth at 10 µM: -3.52%
[2]
  inhibition of growth at 10 µM: 9.83%
[3]
  inhibition of growth at 10 µM: 4.11%
[4]
  inhibition of growth at 10 µM: 15.5%
[5]
  inhibition of growth at 10 µM: 0.13%
[6]
  inhibition of growth at 10 µM: 28.6%
[7]
  inhibition of growth at 10 µM: 4.68%
[8]
  inhibition of growth at 10 µM: -0.17%
[9]
  inhibition of growth at 10 µM: 4.88%
[10]
  inhibition of growth at 10 µM: 21.8%
[11]
  inhibition of growth at 10 µM: 4.61%
[12]
  inhibition of growth at 10 µM: 10.9%
[13]
  inhibition of growth at 10 µM: 16.6%
[14]
  inhibition of growth at 10 µM: -2.79%
[15]
  inhibition of growth at 10 µM: -14.2%
[16]
  inhibition of growth at 10 µM: 0.13%
[17]
  inhibition of growth at 10 µM: 9.11%
[18]
  inhibition of growth at 10 µM: -6.9%
[19]
  inhibition of growth at 10 µM: 4.5%
[20]
  inhibition of growth at 10 µM: -1.9%
[21]
  inhibition of growth at 10 µM: 2.95%
[22]
  inhibition of growth at 10 µM: 9.37%
[23]
  inhibition of growth at 10 µM: -15.4%
[24]
  inhibition of growth at 10 µM: -12.7%
[25]
  inhibition of growth at 10 µM: -13.3%
[26]
  inhibition of growth at 10 µM: -6.27%
[27]
  inhibition of growth at 10 µM: 5.55%
[28]
  inhibition of growth at 10 µM: -0.62%
[29]
  inhibition of growth at 10 µM: -3.83%
[30]
  inhibition of growth at 10 µM: 4.81%
[31]
  inhibition of growth at 10 µM: 2.58%
[32]
  inhibition of growth at 10 µM: 0.88%
[33]
  inhibition of growth at 10 µM: 47.5%
[34]
  inhibition of growth at 10 µM: -0.12%
[35]
  inhibition of growth at 10 µM: 5.84%
[36]
  inhibition of growth at 10 µM: 6.18%
[37]
  inhibition of growth at 10 µM: 32.6%
[38]
  inhibition of growth at 10 µM: -6.04%
[39]
  inhibition of growth at 10 µM: -12.4%
[40]
  inhibition of growth at 10 µM: 10.9%
[41]
  inhibition of growth at 10 µM: 44.5%
[42]
  inhibition of growth at 10 µM: -2.34%
[43]
  inhibition of growth at 10 µM: 21.3%
[44]
  inhibition of growth at 10 µM: 72.6%

## O=C(CN(c1ccccc1)c1ccccc1)Nc1ccc(-c2nc3ccccc3s2)cc1
[1]
  inhibition of growth at 10 µM: -4.11%
[2]
  inhibition of growth at 10 µM: 2.08%
[3]
  inhibition of growth at 10 µM: -0.82%
[4]
  inhibition of growth at 10 µM: 3.62%
[5]
  inhibition of growth at 10 µM: -3.15%
[6]
  inhibition of growth at 10 µM: 2.35%
[7]
  inhibition of growth at 10 µM: -13.3%
[8]
  inhibition of growth at 10 µM: 6.1%
[9]
  inhibition of growth at 10 µM: 2.41%
[10]
  inhibition of growth at 10 µM: -6.75%
[11]
  inhibition of growth at 10 µM: 3.7%
[12]
  inhibition of growth at 10 µM: -3.74%
[13]
  inhibition of growth at 10 µM: 7.11%
[14]
  inhibition of growth at 10 µM: -9.25%
[15]
  inhibition of growth at 10 µM: 14.3%
[16]
  inhibition of growth at 10 µM: -3.6%
[17]
  inhibition of growth at 10 µM: -5.38%
[18]
  inhibition of growth at 10 µM: -5.89%
[19]
  inhibition of growth at 10 µM: -3.04%
[20]
  inhibition of growth at 10 µM: -1.62%
[21]
  inhibition of growth at 10 µM: -8.11%
[22]
  inhibition of growth at 10 µM: -5.48%
[23]
  inhibition of growth at 10 µM: -10.5%
[24]
  inhibition of growth at 10 µM: -6.47%
[25]
  inhibition of growth at 10 µM: -2.02%
[26]
  inhibition of growth at 10 µM: 2.85%
[27]
  inhibition of growth at 10 µM: -7.16%
[28]
  inhibition of growth at 10 µM: 4.71%
[29]
  inhibition of growth at 10 µM: -12.2%
[30]
  inhibition of growth at 10 µM: -5.12%
[31]
  inhibition of growth at 10 µM: -5.31%
[32]
  inhibition of growth at 10 µM: -6.94%
[33]
  inhibition of growth at 10 µM: -4.25%
[34]
  inhibition of growth at 10 µM: 4.21%
[35]
  inhibition of growth at 10 µM: -1.45%
[36]
  inhibition of growth at 10 µM: -3.01%
[37]
  inhibition of growth at 10 µM: 11.2%
[38]
  inhibition of growth at 10 µM: -10.1%
[39]
  inhibition of growth at 10 µM: -8.16%
[40]
  inhibition of growth at 10 µM: -4.14%
[41]
  inhibition of growth at 10 µM: 52%
[42]
  inhibition of growth at 10 µM: -3.98%
[43]
  inhibition of growth at 10 µM: 3.89%
[44]
  inhibition of growth at 10 µM: 61.3%
